Experiments:
HIV-1ADA = assay: Antiretroviral activity: reverse transcriptase; type: cell-based
[1] = test system: human monocyte-derived macrophages (MDM); assay: MTT cell vitality assay; type: cell-based; conditions: 12 hours

Compound: Cc1cc(/C=C/C#N)cc(C)c1Nc1ccnc(Nc2ccc(C#N)cc2)n1 [native RPV, rilpivirine]
- RT activity (progeny HIV virion production) (HIV-1ADA; 6.25 μM for 8 hours, challenge at day 5, MOI 0.1, 10 days post infection): virtually no protection
- RT activity (progeny HIV virion production) (HIV-1ADA; 12.5 mM RPV equivalents (printed) for 8 hours, challenge at day 5): no protection
- cell vitality (MTT) ([1]; 200 μM (RPV), highest concentration tested): 37.9%
- effect on cell vitality (MTT) ([1]; up to 50 μM (RPV)): little effect on cell vitality

Reference: article PMC6556898 (Biomaterials, 2018)
